Square brackets hold non-standard residues; d marks the D form. pGlu = O=C1CC[C@@H](C(=O)O)N1
Tests used:
Assay type in all cases: cell-based
[1] = tested on: CHO cells transfected with the mock vector; experiment: Intracellular calcium ion concentration change in CHO cells transfected with the mock vector
Procedure: (§1) CHO cells were transfected with pEF1/V5-HisB plasmid vector carrying the monkey GPR103 gene or human GPR103 gene obtained in Example 1 and the same vector without the insert (mock), and Geneticin (Invitrogen Corp.) was added to the medium to a final concentration of 2 mg/ml for selection of expressing cells. Next, the monkey or human GPR103 gene-expressing cells were singly cloned by the limiting dilution method and supplied for the following test. The monkey QRFP43 and QRFP26 synthesized by the method described in Example 6 were also supplied for the test.
(§2) After 24 hours of culturing, the cells were seeded in a 96-well poly-D-lysine coated black culture plate (Becton Dickinson) at 2.5×10^4 cells/well and cultured for two nights. […] Different concentrations of monkey QRFP43 or QRFP26 dissolved in the assay buffer were also set in the FLIPR, and then a sample was added to the cells and the change in intracellular calcium ion concentration-dependent fluorescence produced by irradiation with exciting light was measured.
(§3) Defining the change in fluorescence as the difference between the fluorescence immediately before addition of monkey QRFP43 or QRFP26 and the maximum value after addition, a Prism Version 4.00 (GraphPad) was used to graph the change in fluorescence due to each concentration of peptide (protein), and the 50% effective concentration was determined.

human GPR103 = biological target: T1, human GPR103 (Homo sapiens, UniProt Q96P65); experiment: Intracellular calcium ion concentration increasing activity (FLIPR) in human GPR103 gene-expressing CHO cells; settings: Fluo4, read-out: 50% effective concentration, intracellular calcium ion concentration increasing activity
T1 construct: expressed in transfected cells; host or cells: CHO cells, Geneticin-selected, single clone by limiting dilution
T1 sequence (Q96P65 1-431): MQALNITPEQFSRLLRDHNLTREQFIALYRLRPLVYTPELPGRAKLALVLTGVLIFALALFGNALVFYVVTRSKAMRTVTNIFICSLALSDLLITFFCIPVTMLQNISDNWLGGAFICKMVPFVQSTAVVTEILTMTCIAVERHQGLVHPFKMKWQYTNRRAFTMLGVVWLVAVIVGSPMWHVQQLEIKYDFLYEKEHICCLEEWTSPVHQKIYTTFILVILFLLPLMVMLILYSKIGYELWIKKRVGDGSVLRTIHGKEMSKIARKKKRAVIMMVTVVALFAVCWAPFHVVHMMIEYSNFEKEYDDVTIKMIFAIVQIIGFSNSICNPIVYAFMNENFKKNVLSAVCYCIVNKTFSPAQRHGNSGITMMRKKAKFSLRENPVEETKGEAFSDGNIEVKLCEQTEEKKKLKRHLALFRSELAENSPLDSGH
Procedure: as §1, §2, §3

monkey GPR103 = experiment: Intracellular calcium ion concentration increasing activity (FLIPR) in monkey GPR103 gene-expressing CHO cells; settings: Fluo4, read-out: 50% effective concentration, intracellular calcium ion concentration increasing activity
Procedure: as §1, §2, §3

Row | Substance | change in intracellular calcium ion concentration [1] | EC50 (human GPR103) | EC50 (monkey GPR103)
1 | H-ASGPLGNLAEELNGYSRKKGGFSFRF-NH2 [monkey QRFP26] | no change | 1.7 nM | 9.2 nM
2 | [pGlu]DEGSEADDFLPAGGVKASGPLGNLAEELNGYSRKKGGFSFRF-NH2 [monkey QRFP43] | no change | 58 nM | 69 nM

Reference: patent publication US7696339B2, “Nucleic acid encoding monkey QRFP” (Banyu Pharmaceutical Co., Ltd., priority 2004, dated 2010)
